Test results reported in ChEMBL document CHEMBL1201862, “PubChem BioAssay data set” (2004).
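Cultured in 96-well plates, cells were exposed to test compound for 48 hours across five concentrations. GI50 is the concentration that inhibits growth by half.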 Calls of active or inactive are those of the source. Cut-off read from the data, not from the text of the source: active = GI50 up to about 1.1 µM and inactive = higher.

What was measured:
Test in all cases: NCI anticancer screen, dose series, 48 h
786-0 = system: 786-0
A498 = system: A498
A549 = system: A549
ACHN = system: ACHN
CAKI-1 = system: CAKI-1
CCRF-CEM = system: CCRF-CEM
COLO 205 = system: COLO 205
DU-145 = system: DU-145
EKVX = system: EKVX
HCC 2998 = system: HCC 2998
HCT-116 = system: HCT-116
HCT-15 = system: HCT-15
HL-60 = system: HL-60
HOP-62 = system: HOP-62
HOP-92 = system: HOP-92
HT-29 = system: HT-29
Hs-578T = system: Hs-578T
IGROV-1 = system: IGROV-1
K562 = system: K562
KM12 = system: KM12
LOX IMVI = system: LOX IMVI
M14 = system: M14
MCF7 = system: MCF7
MDA-MB-231 = system: MDA-MB-231
MDA-MB-435 = system: MDA-MB-435
MDA-N = system: MDA-N
MOLT-4 = system: MOLT-4
Malme-3M = system: Malme-3M
NCI-H226 = system: NCI-H226
NCI-H23 = system: NCI-H23
NCI-H460 = system: NCI-H460
NCI-H522 = system: NCI-H522
NCI/ADR-RES = system: NCI/ADR-RES
OVCAR-3 = system: OVCAR-3
OVCAR-4 = system: OVCAR-4
OVCAR-5 = system: OVCAR-5
OVCAR-8 = system: OVCAR-8
PC-3 = system: PC-3
RPMI-8226 = system: RPMI-8226
RXF 393 = system: RXF 393
SF-268 = system: SF-268
SF-295 = system: SF-295
SF-539 = system: SF-539
SK-MEL-28 = system: SK-MEL-28
SK-MEL-2 = system: SK-MEL-2
SK-MEL-5 = system: SK-MEL-5
SN12C = system: SN12C
SNB-19 = system: SNB-19
SNB-75 = system: SNB-75
SR = system: SR
SW-620 = system: SW-620
T47D = system: T47D
TK-10 = system: TK-10
U-251 = system: U-251
UACC-257 = system: UACC-257
UACC-62 = system: UACC-62
SK-OV-3 = system: SK-OV-3
UO-31 = system: UO-31
BT-549 = system: BT-549

For `O=C(CCCN1CCc2[nH]c3cc(F)ccc3c2C1)c1ccc(F)cc1`, the GI50 (786-0) was 13.5 µM (inactive), the GI50 (A498) was 11.8 µM (inactive) and the GI50 (A549) was 15.8 µM (inactive). The GI50 (ACHN) was 13.8 µM (inactive), the GI50 (CAKI-1) was > 100 µM (inactive) and the GI50 (CCRF-CEM) was 12 µM (inactive). For the same molecule, the GI50 (COLO 205) was 4.84 µM (inactive), the GI50 (DU-145) was 13.3 µM (inactive) and the GI50 (EKVX) was 14.8 µM (inactive). For the same molecule, the GI50 (HCC 2998) was 3.33 µM (inactive), the GI50 (HCT-116) was 11.8 µM (inactive) and the GI50 (HCT-15) was 16.8 µM. The GI50 (HL-60) was 11.1 µM (inactive), the GI50 (HOP-62) was 16.1 µM (inactive) and the GI50 (HOP-92) was 2.26 µM (inactive). For the same molecule, the GI50 (HT-29) was 6.11 µM (inactive), the GI50 (Hs-578T) was 10.5 µM (inactive) and the GI50 (IGROV-1) was 16.4 µM (inactive). For the same molecule, the GI50 (K562) was 5.71 µM (inactive), the GI50 (KM12) was 13.9 µM (inactive) and the GI50 (LOX IMVI) was 3.95 µM (inactive). The GI50 (M14) was 9.82 µM (inactive), the GI50 (MCF7) was 4.59 µM (inactive) and the GI50 (MDA-MB-231) was 12.5 µM (inactive). The GI50 (MDA-MB-435) was 12.9 µM (inactive), the GI50 (MDA-N) was 15.7 µM (inactive) and the GI50 (MOLT-4) was 13 µM (inactive). For the same molecule, the GI50 (Malme-3M) was 12.6 µM (inactive), the GI50 (NCI-H226) was 18.7 µM (inactive) and the GI50 (NCI-H23) was 14.1 µM (inactive). The GI50 (NCI-H460) was 10.9 µM (inactive), the GI50 (NCI-H522) was 20.7 µM (inactive) and the GI50 (NCI/ADR-RES) was 14.2 µM (inactive). The GI50 (OVCAR-3) was 14.2 µM (inactive), the GI50 (OVCAR-4) was 13.8 µM (inactive) and the GI50 (OVCAR-5) was 12.2 µM (inactive). For the same molecule, the GI50 (OVCAR-8) was 15.1 µM (inactive), the GI50 (PC-3) was 12.9 µM (inactive) and the GI50 (RPMI-8226) was 10 µM (inactive). The GI50 (RXF 393) was 14.4 µM (inactive), the GI50 (SF-268) was 13.1 µM (inactive) and the GI50 (SF-295) was 17.4 µM (inactive). For the same molecule, the GI50 (SF-539) was 16.7 µM (inactive), the GI50 (SK-MEL-28) was 20.3 µM (inactive) and the GI50 (SK-MEL-2) was 18 µM (inactive). The GI50 (SK-MEL-5) was 17.1 µM (inactive), the GI50 (SN12C) was 14.3 µM (inactive) and the GI50 (SNB-19) was > 100 µM (inactive). For the same molecule, the GI50 (SNB-75) was 11 µM (inactive), the GI50 (SR) was 8.49 µM (inactive) and the GI50 (SW-620) was > 100 µM (inactive). The GI50 (T47D) was 18.9 µM (inactive), the GI50 (TK-10) was 12.4 µM (inactive) and the GI50 (U-251) was 16.3 µM (inactive). The GI50 (UACC-257) was 15.4 µM (inactive) and the GI50 (UACC-62) was 12.7 µM (inactive).
`CCN(CC)C(=S)SS(=O)(=O)c1ccc(N)cc1` was tested, and the GI50 (A498) was > 40.2 µM (inactive), the GI50 (A549) was 14.5 µM (inactive) and the GI50 (ACHN) was > 78.3 µM (inactive). For the same molecule, the GI50 (CAKI-1) was > 46.9 µM (inactive), the GI50 (EKVX) was > 100 µM (inactive) and the GI50 (HCC 2998) was > 29.1 µM (inactive). The GI50 (HOP-62) was > 58.2 µM (inactive), the GI50 (HOP-92) was > 23.1 µM (inactive) and the GI50 (HT-29) was > 100 µM (inactive). For the same molecule, the GI50 (Hs-578T) was > 91 µM (inactive), the GI50 (IGROV-1) was 4.91 µM (inactive) and the GI50 (K562) was 39.5 µM (inactive). For the same molecule, the GI50 (KM12) was 29.6 µM (inactive), the GI50 (M14) was 70 µM (inactive) and the GI50 (MCF7) was 7.29 µM (inactive). The GI50 (MDA-N) was 70.5 µM (inactive), the GI50 (MOLT-4) was 2.3 µM (inactive) and the GI50 (NCI-H23) was > 100 µM (inactive). For the same molecule, the GI50 (NCI-H460) was 87.1 µM (inactive), the GI50 (NCI-H522) was 3.68 µM (inactive) and the GI50 (OVCAR-5) was > 100 µM (inactive). For the same molecule, the GI50 (RPMI-8226) was 22.8 µM (inactive), the GI50 (RXF 393) was 31.8 µM (inactive) and the GI50 (SK-MEL-2) was > 100 µM (inactive). For the same molecule, the GI50 (SK-MEL-5) was 15.2 µM (inactive), the GI50 (SK-OV-3) was > 100 µM (inactive) and the GI50 (SNB-19) was > 100 µM (inactive). The GI50 (SR) was 3.41 µM (inactive), the GI50 (T47D) was 76.7 µM (inactive) and the GI50 (UACC-62) was 39.4 µM (inactive). For the same molecule, the GI50 (UO-31) was > 89.5 µM (inactive).
With `NNC(=O)COc1nc(-c2cccs2)nc2ccc(I)cc12` the GI50 (786-0) was 25.5 µM (inactive), the GI50 (A549) was 18.7 µM (inactive) and the GI50 (ACHN) was 22.5 µM (inactive). For the same molecule, the GI50 (BT-549) was 15.3 µM (inactive), the GI50 (CAKI-1) was 17.6 µM (inactive) and the GI50 (COLO 205) was 26.8 µM (inactive). For the same molecule, the GI50 (DU-145) was 21.7 µM (inactive), the GI50 (EKVX) was 18.9 µM (inactive) and the GI50 (HCC 2998) was 20 µM (inactive). For the same molecule, the GI50 (HCT-116) was 16.6 µM (inactive), the GI50 (HCT-15) was 20.7 µM and the GI50 (HOP-62) was 27.3 µM (inactive). The GI50 (HOP-92) was 18 µM (inactive), the GI50 (HT-29) was 34.4 µM (inactive) and the GI50 (IGROV-1) was 18.4 µM (inactive). For the same molecule, the GI50 (KM12) was 17.1 µM (inactive), the GI50 (LOX IMVI) was 17.6 µM (inactive) and the GI50 (M14) was 23.1 µM (inactive). For the same molecule, the GI50 (MCF7) was 15.8 µM (inactive), the GI50 (MDA-MB-435) was 20.1 µM (inactive) and the GI50 (MDA-N) was 31.7 µM (inactive). The GI50 (MOLT-4) was 25.7 µM (inactive), the GI50 (Malme-3M) was 17 µM (inactive) and the GI50 (NCI-H226) was 19.9 µM (inactive). For the same molecule, the GI50 (NCI-H23) was 15.3 µM (inactive), the GI50 (NCI-H460) was 21.8 µM (inactive) and the GI50 (NCI-H522) was 18.7 µM (inactive). The GI50 (NCI/ADR-RES) was 28.1 µM (inactive), the GI50 (OVCAR-3) was 15.9 µM (inactive) and the GI50 (OVCAR-4) was 21.4 µM (inactive). The GI50 (OVCAR-5) was 28.4 µM (inactive), the GI50 (OVCAR-8) was 29 µM (inactive) and the GI50 (PC-3) was 25.4 µM (inactive). For the same molecule, the GI50 (RXF 393) was 34.3 µM (inactive), the GI50 (SF-268) was 20.8 µM (inactive) and the GI50 (SF-295) was 28.8 µM (inactive). For the same molecule, the GI50 (SK-MEL-28) was 24.8 µM (inactive), the GI50 (SK-MEL-2) was 24.5 µM (inactive) and the GI50 (SK-MEL-5) was 20.1 µM (inactive). The GI50 (SK-OV-3) was 20.6 µM (inactive), the GI50 (SN12C) was 23.1 µM (inactive) and the GI50 (SNB-19) was 13.4 µM (inactive). The GI50 (SNB-75) was 22.7 µM (inactive), the GI50 (SR) was 15.8 µM (inactive) and the GI50 (SW-620) was 34.5 µM (inactive). For the same molecule, the GI50 (T47D) was 1.47 µM (inactive), the GI50 (TK-10) was 18.2 µM (inactive) and the GI50 (U-251) was 18.7 µM (inactive). For the same molecule, the GI50 (UACC-62) was 19.8 µM (inactive) and the GI50 (UO-31) was 21.1 µM (inactive).
